Measured values: patent US20260184707A1, “PHARMACEUTICAL COMPOUNDS FOR THE TREATMENT OF COMPLEMENT MEDIATED DISORDERS” (ALEXION PHARMACEUTICALS, INC., priority 2022, published 2026)
pIC50: −log10 of the molar value.

Target: T1, Human complement C1s enzyme (Homo sapiens, UniProt P09871)
T1 construct: purified from human serum, Complement Technology, Inc; purchased Complement Technology, Inc; host or cells: human serum (plasma-derived native protein)
T1 sequence (P09871 438-688 limits assumed): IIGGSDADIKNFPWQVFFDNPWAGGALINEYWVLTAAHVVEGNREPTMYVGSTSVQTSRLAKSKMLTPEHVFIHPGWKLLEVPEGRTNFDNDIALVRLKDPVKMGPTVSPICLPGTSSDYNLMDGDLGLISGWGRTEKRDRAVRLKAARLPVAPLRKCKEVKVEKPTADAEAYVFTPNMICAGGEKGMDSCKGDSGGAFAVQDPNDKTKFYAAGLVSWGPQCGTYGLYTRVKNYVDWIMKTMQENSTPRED
T1 sequence (P09871 16-437 partner limits assumed): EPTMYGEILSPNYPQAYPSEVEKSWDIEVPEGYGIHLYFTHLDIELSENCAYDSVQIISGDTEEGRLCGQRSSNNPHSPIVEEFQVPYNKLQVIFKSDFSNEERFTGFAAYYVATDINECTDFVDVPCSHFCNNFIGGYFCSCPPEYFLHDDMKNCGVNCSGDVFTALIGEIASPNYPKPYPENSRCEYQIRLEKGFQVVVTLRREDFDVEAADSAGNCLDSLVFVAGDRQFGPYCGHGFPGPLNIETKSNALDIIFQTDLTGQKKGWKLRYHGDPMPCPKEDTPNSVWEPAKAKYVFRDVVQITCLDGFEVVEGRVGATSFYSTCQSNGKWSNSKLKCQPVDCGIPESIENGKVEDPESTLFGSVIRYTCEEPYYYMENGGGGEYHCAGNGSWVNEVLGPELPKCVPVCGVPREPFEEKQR
Assay: Human C1s enzyme assay
Type: biochemical
Details: human complement C1s enzyme 1.16 nM, substrate Z-L-Lys-SBzl, A405; read-out: IC50 (Stars)
In short: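 Serum-purified human C1s (1.16 nM final) preincubated 5 min at room temperature with compound in 50 mM Tris, 1 M NaCl, pH 7.5. Z-L-Lys-SBzl and DTNB added at 100 μM each; A405 recorded every 30 s. IC50 from nonlinear regression of reaction rates versus compound concentration.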

Row | pIC50 | Structure (SMILES)
1 | > 7.00 | COc1ccc(-c2ncc(NCc3ccc4oc5ccccc5c4c3)c(=O)n2CC(=O)NCc2cc3cnccc3[nH]2)cc1 [Compound 119, N-((1H-pyrrolo[3,2-c]pyridin-2-yl)methyl)-2-(5-((dibenzo [b,d]furan-2-ylmethyl)amino)-2-(4-methoxyphenyl)-6-oxo-pyrimidin-1(6H)-yl)acetamide]
2 | > 7.00 | O=C(Cn1c(-c2ccccc2F)ncc(NCc2ccc3oc4ccccc4c3c2)c1=O)NCc1cc2cnccc2[nH]1 [Compound 120, N-((1H-pyrrolo[3,2-c]pyridin-2-yl)methyl)-2-(5-((dibenzo [b,d]furan-2-ylmethyl)amino)-2-(2-fluorophenyl)-6-oxopyr-imidin-1(6H)-yl)acetamide]
3 | > 7.00 | O=C(Cn1c(-c2ccc(F)cc2)ncc(NCc2ccc3oc4ccccc4c3c2)c1=O)NCc1cc2cnccc2[nH]1 [Compound 123, N-((1H-pyrrolo[3,2-c]pyridine-2-yl)methyl)-2-(5-((dibenzo[b,d]furan-2-ylmethyl)amino)-2-(4-fluorophenyl)-6-oxopyrimidin-1(6H)-yl)acetamide]
4 | > 7.00 | O=C(Cn1c(-c2ccc(OC3COC3)cc2)ncc(NCc2ccc3oc4ccccc4c3c2)c1=O)NCc1cc2cnccc2[nH]1 [Compound 130, N-((1H-pyrrolo[3,2-c]pyridine-2-yl)methyl)-2-(5-((dibenzo[b,d]furan-2-ylmethyl)amino)-2-(4-(oxetan-3-yloxy)phenyl)-6-oxopyrimidin-1(6H)-yl)acetamide]
5 | > 7.00 | CS(=O)(=O)c1ccc(-c2ncc(NCc3ccc4oc5ccccc5c4c3)c(=O)n2CC(=O)NCc2cc3cnccc3[nH]2)cc1 [Compound 134, N-((1H-pyrrolo[3,2-c]pyridin-2-yl)methyl)-2-(5-((dibenzo [b,d]furan-2-ylmethyl)amino)-2-(4-(methylsulfonyl)phenyl)-6-oxopyrimidin-1(6H)-yl)-acetamide]
6 | > 7.00 | O=C(Cn1c(-c2ccc(C(F)(F)F)cc2)ncc(NCc2ccc3oc4ccccc4c3c2)c1=O)NCc1cc2cnccc2[nH]1 [Compound 135, N-((1H-pyrrolo[3,2-c]pyridin-2-yl)methyl)-2-(5-((dibenzo [b,d]furan-2-ylmethyl)amino)-6-oxo-2-(4-(trifluoromethyl)-phenyl)pyrimidin-1(6H)-yl)-acetamide]
7 | > 7.00 | O=C(Cn1c(-c2ccc(OC(F)(F)F)cc2)ncc(NCc2ccc3oc4ccccc4c3c2)c1=O)NCc1cc2cnccc2[nH]1 [Compound 136, N-((1H-pyrrolo[3,2-c]pyridin-2-yl)methyl)-2-(5-((dibenzo [b,d]furan-2-ylmethyl)amino)-6-oxo-2-(4-(trifluoromethoxy)-phenyl)pyrimidin-1(6H)-yl)-acetamide]
8 | > 7.00 | O=C(Cn1c(-c2ccc(NC(=O)CO)cc2)ncc(NCc2ccc3oc4ccccc4c3c2)c1=O)NCc1cc2cnccc2[nH]1 [Compound 147, N-((1H-pyrrolo[3,2-c]pyridine-2-yl)methyl)-2-(5-((dibenzo[b,d]furan-2-ylmethyl)amino)-2-(4-(2-hydroxyacetamido)phenyl)-6-oxopyrimidin-1(6H)-yl)acetamide]
9 | > 7.00 | O=C(Cn1c(-c2ccc(N3CCCC3=O)cc2)ncc(NCc2ccc3oc4ccccc4c3c2)c1=O)NCc1cc2cnccc2[nH]1 [Compound 153, N-((1H-pyrrolo[3,2-c]pyridin-2-yl)methyl)-2-(5-((dibenzo [b,d]furan-2-ylmethyl)amino)-6-oxo-2-(4-(2-oxopyrrolidin-1-yl)phenyl)pyrimidin-1(6H)-yl)acetamide]

The remaining lines, values behind:

Row | Structure (SMILES) | pIC50
10 | O=C(Cn1c(-c2ccc(OC3CS(=O)(=O)C3)cc2)ncc(NCCCc2ccccc2)c1=O)NCc1cc2cnccc2[nH]1 [Compound 124, N-((1H-pyrrolo[3,2-c]pyridine-2-yl)methyl)-2-(2-(4-((1,1-dioxidothietan-3-yl)oxy)phenyl)-6-oxo-5-((3-phenylpropyl)amino)pyrimidin-1(6H)-yl)acetamide] | > 7.00
11 | O=C(Cn1c(-c2ccc(O[C@@H]3CO[C@H]4[C@@H]3OC[C@H]4O)cc2)ncc(NCCCc2ccccc2)c1=O)NCc1cc2cnccc2[nH]1 [Compound 125, N-((1H-pyrrolo[3,2-c]pyridine-2-yl)methyl)-2-(2-(4-(((3R,3aR,6R,6aR)-6-hydroxyhexahydrofuro[3,2-b]furan-3-yl)oxy)phenyl)-6-oxo-5-((3-phenylpropyl)amino)pyrimidin-1(6H)-yl)acetamide] | > 7.00
12 | C[C@@H](Nc1cnc(-c2ccccc2)n(CC(=O)NCc2cc3cnccc3[nH]2)c1=O)c1ccc2oc3ccccc3c2c1 [Compound 126, (R)-N-((1H-pyrrolo[3,2-c]pyr-idin-2-yl)methyl)-2-(5-((1-(dibenzo[b,d]furan-2-yl)ethyl)-amino)-6-oxo-2-phenylpyrimi-din-1(6H)-yl)acetamide] | > 7.00
13 | C[C@H](Nc1cnc(-c2ccccc2)n(CC(=O)NCc2cc3cnccc3[nH]2)c1=O)c1ccc2oc3ccccc3c2c1 [Compound 127, (S)—N-((1H-pyrrolo[3,2-c]pyridine-2-yl)methyl)-2-(5-((1-(dibenzo[b,d]furan-2-yl)ethyl)amino)-6-oxo-2-phenylpyrimidin-1(6H)-yl)acetamide] | > 7.00
14 | COc1c(NC(=O)c2ccc(-c3ccccc3)s2)ccc(-c2ccccc2)c1CC(=O)NCc1cc2cnccc2[nH]1 [Compound 129, N-(2-(2-(((1H-Pyrrolo[3,2-c]pyridine-2-yl)methyl)amino)-2-oxoethyl)-3-methoxy-[1,1′-biphenyl]-4-yl)-5-phenylthiophene-2-carboxamide] | < 6.00
15 | O=C(Cn1c(-c2ccc(OC3COC3)cc2)ncc(NCc2ccc3c(c2)-c2ccccc2C3(F)F)c1=O)NCc1cc2cnccc2[nH]1 [Compound 138, N-((1H-pyrrolo[3,2-c]pyridin-2-yl)methyl)-2-(5-(((9,9-difluoro-9H-fluoren-3-yl)meth-yl)amino)-2-(4-(oxetan-3-yl-oxy)phenyl)-6-oxopyrimidin-1(6H)-yl)acetamide] | > 7.00
16 | O=C(Cn1c(-c2ccccc2)ncc(NCc2ccc3oc4ccccc4c3c2)c1=O)NCc1cc2cnccc2s1 [Compound 141, 2-(5-((Dibenzo[b,d]furan-2-ylmethyl)amino)-6-oxo-2-phenylpyrimidin-1(6H)-yl)-N-(thieno[3,2-c]pyridin-2-ylmethyl)acetamide] | > 7.00
17 | O=C(Cn1c(-c2ccccc2)ncc(NCc2ccc3oc4ccccc4c3c2)c1=O)NCc1cc2c(s1)CCNC2 [Compound 142, 2-(5-((dibenzo[b,d]furan-2-ylmethyl)amino)-6-oxo-2-phenylpyrimidin-1(6H)-yl)-N-((4,5,6,7-tetrahydrothieno[3,2-c]pyridine-2-yl)methyl)acetamide] | > 7.00
18 | O=C(Cn1c(-c2ccccc2)ncc(NCc2ccc3oc4ccccc4c3c2)c1=O)NCc1cc2c(s1)CNCC2 [Compound 143, 2-(5-((dibenzo[b,d]furan-2-yl-methyl)amino)-6-oxo-2-phen-ylpyrimidin-1(6H)-yl)-N-((4,5,6,7-tetrahydrothieno [2,3-c]pyridin-2-yl)methyl)-acetamide] | > 7.00
19 | O=C(Cn1c(-c2ccccc2)ncc(NCc2ccc3oc4ccccc4c3c2)c1=O)NCc1cc2cnccn2c1 [Compound 144, 2-(5-((dibenzo[b,d]furan-2-ylmethyl)amino)-6-oxo-2-phenylpyrimidin-1(6H)-yl)-N-(pyrrolo[1,2-a]pyrazin-7-ylmethyl)acetamide] | < 6.00
20 | O=C(Cn1c(-c2ccc(OCCOc3ccc(F)cc3)cc2)ncc(NCc2ccc3oc4ccccc4c3c2)c1=O)NCc1cc2cnccc2[nH]1 [Compound 154, N-((1H-pyrrolo[3,2-c]pyridine-2-yl)methyl)-2-(5-((dibenzo[b,d]furan-2-ylmethyl)amino)-2-(4-(2-(4-fluorophenoxy)ethoxy)phenyl)-6-oxopyrimidin-1(6H)-yl)acetamide] | > 7.00
21 | O=C(Cn1c(-c2ccc(OCc3ccccc3)cc2)ncc(NCc2ccc3oc4ccccc4c3c2)c1=O)NCc1cc2cnccc2[nH]1 [Compound 155, N-((1H-pyrrolo[3,2-c]pyridin-2-yl)methyl)-2-(2-(4-(benzyl-oxy)phenyl)-5-((dibenzo[b,d]furan-2-ylmethyl)amino)-6-oxopyrimidin-1(6H)-yl)acet-amide] | > 7.00
22 | O=C(Cn1c(-c2ccccc2)ncc(NC(=O)c2ccc(-c3ccc(OC(F)(F)F)cc3)cc2)c1=O)NCc1cc2cnccc2[nH]1 [Compound 164, N-(1-(2-(((1H-pyrrolo[3,2-c]pyridin-2-yl)methyl)amino)-2-oxoethyl)-6-oxo-2-phenyl-1,6-dihydropyrimidin-5-yl)-4′-(trifluoromethoxy)-[1,1′-biphenyl]-4-carboxamide] | > 7.00
23 | O=C(Cn1c(-c2ccccc2)ncc(NC(=O)c2cccc(-c3ccccc3)c2)c1=O)NCc1cc2cnccc2[nH]1 [Compound 165, N-(1-(2-(((1H-pyrrolo[3,2-c]pyridin-2-yl)methyl)amino)-2-oxoethyl)-6-oxo-2-phenyl-1,6-dihydropyrimidin-5-yl)-[1,1′-biphenyl]-3-carboxamide] | > 7.00
